Data as given in ChEMBL document CHEMBL1145592, “Pleuromutilin derivatives having a purine ring. Part 1: new compounds with promising antibacterial activity against resistant Gram-positive pathogens” (2008).
Converted amounts (≈) assume the structure as drawn.

What was measured:
Assay type in all cases: functional
Staphylococcus aureus [1] = experiment: Antibacterial activity against methicillin-susceptible Staphylococcus aureus Smith
Staphylococcus aureus [2] = experiment: Antibacterial activity against methicillin-resistant Staphylococcus aureus KMP9
Enterococcus faecium = experiment: Antibacterial activity against vancomycin-resistant Enterococcus faecium KU1778
Staphylococcus aureus [3] = experiment: Antibacterial activity against methicillin-susceptible Staphylococcus aureus Smith infected iv dosed mouse 1 hr after inoculation
Streptococcus pneumoniae [4] = experiment: Antibacterial activity against penicillin-susceptible Streptococcus pneumoniae ATCC 49619
Streptococcus pneumoniae [5] = experiment: Antibacterial activity against penicillin-resistant Streptococcus pneumoniae KT2524
Streptococcus pyogenes = experiment: Antibacterial activity against Streptococcus pyogenes ATCC 12344
Moraxella catarrhalis = experiment: Antibacterial activity against Moraxella catarrhalis K1209
Haemophilus influenzae = experiment: Antibacterial activity against Haemophilus influenzae TH13

| Structure (SMILES) | MIC (Staphylococcus aureus [1]) | MIC (Staphylococcus aureus [2]) | MIC (Enterococcus faecium) | ED50 (Staphylococcus aureus [3]) | MIC (Streptococcus pneumoniae [4]) | MIC (Streptococcus pneumoniae [5]) | MIC (Streptococcus pyogenes) | MIC (Moraxella catarrhalis) | MIC (Haemophilus influenzae) |
| --- | --- | --- | --- | --- | --- | --- | --- | --- | --- |
| C=C[C@]1(C)C[C@@H](OC(=O)CSC2CCN(C(=O)CCn3cnc4c(N5CCC(CNC)C5)ncnc43)CC2)[C@]2(C)[C@H](C)CC[C@]3(CCC(=O)[C@@H]32)[C@@H](C)[C@@H]1O (stereo partly drawn) | 0.25 µg/mL (≈ 0.327 µM) | 0.5 µg/mL (≈ 0.654 µM) | 0.125 µg/mL (≈ 0.164 µM) | 0.76 mg/kg | 0.063 µg/mL (≈ 0.0825 µM) | 0.063 µg/mL (≈ 0.0825 µM) | 0.016 µg/mL (≈ 0.0209 µM) | 0.125 µg/mL (≈ 0.164 µM) | 2 µg/mL (≈ 2.62 µM) |
| C=C[C@]1(C)C[C@@H](OC(=O)CSC2CCN(C(=O)CCn3cnc4c(N5CC(N)C5)nc(N)nc43)CC2)[C@]2(C)[C@H](C)CC[C@]3(CCC(=O)[C@@H]32)[C@@H](C)[C@@H]1O | 0.5 µg/mL (≈ 0.678 µM) | 1 µg/mL (≈ 1.36 µM) | 0.25 µg/mL (≈ 0.339 µM) | 3.04 mg/kg | 0.063 µg/mL (≈ 0.0855 µM) | 0.125 µg/mL (≈ 0.17 µM) | 0.063 µg/mL (≈ 0.0855 µM) | 0.25 µg/mL (≈ 0.339 µM) | 1 µg/mL (≈ 1.36 µM) |
| C=C[C@]1(C)C[C@@H](OC(=O)CSC2CCN(C(=O)CCn3cnc4c(N5CCNC(C)C5)nc(N)nc43)CC2)[C@]2(C)[C@H](C)CC[C@]3(CCC(=O)[C@@H]32)[C@@H](C)[C@@H]1O (stereo partly drawn) | 0.25 µg/mL (≈ 0.327 µM) | 0.25 µg/mL (≈ 0.327 µM) | 0.125 µg/mL (≈ 0.163 µM) | 2.21 mg/kg | 0.063 µg/mL (≈ 0.0823 µM) | 0.063 µg/mL (≈ 0.0823 µM) | 0.032 µg/mL (≈ 0.0418 µM) | 0.063 µg/mL (≈ 0.0823 µM) | 2 µg/mL (≈ 2.61 µM) |
| C=C[C@]1(C)C[C@@H](OC(=O)CSC2CCN(C(=O)CCn3cnc4c(N5CCC(CN)C5)ncnc43)CC2)[C@]2(C)[C@H](C)CC[C@]3(CCC(=O)[C@@H]32)[C@@H](C)[C@@H]1O (stereo partly drawn) | 0.125 µg/mL (≈ 0.167 µM) | 0.5 µg/mL (≈ 0.667 µM) | 0.125 µg/mL (≈ 0.167 µM) | 0.59 mg/kg | 0.016 µg/mL (≈ 0.0213 µM) | 0.032 µg/mL (≈ 0.0427 µM) | 0.008 µg/mL (≈ 0.0107 µM) | 0.063 µg/mL (≈ 0.084 µM) | 1 µg/mL (≈ 1.33 µM) |
| C=C[C@]1(C)C[C@@H](OC(=O)CSC2CCN(C(=O)CCn3cnc4c(N5CCC(N(C)C)C5)nc(N)nc43)CC2)[C@]2(C)[C@H](C)CC[C@]3(CCC(=O)[C@@H]32)[C@@H](C)[C@@H]1O (stereo partly drawn) | 0.25 µg/mL (≈ 0.321 µM) | 0.25 µg/mL (≈ 0.321 µM) | 0.125 µg/mL (≈ 0.16 µM) | 3 mg/kg | 0.063 µg/mL (≈ 0.0809 µM) | 0.063 µg/mL (≈ 0.0809 µM) | 0.063 µg/mL (≈ 0.0809 µM) | 0.125 µg/mL (≈ 0.16 µM) | 2 µg/mL (≈ 2.57 µM) |
| C=C[C@]1(C)C[C@@H](OC(=O)CSC2CCN(C(=O)CCn3cnc4c(N5CCCC(N)C5)nc(N)nc43)CC2)[C@]2(C)[C@H](C)CC[C@]3(CCC(=O)[C@@H]32)[C@@H](C)[C@@H]1O (stereo partly drawn) | 0.25 µg/mL (≈ 0.327 µM) | 1 µg/mL (≈ 1.31 µM) | 0.25 µg/mL (≈ 0.327 µM) | 2.21 mg/kg | 0.063 µg/mL (≈ 0.0823 µM) | 0.063 µg/mL (≈ 0.0823 µM) | 0.032 µg/mL (≈ 0.0418 µM) | 0.125 µg/mL (≈ 0.163 µM) | 2 µg/mL (≈ 2.61 µM) |
| C=C[C@]1(C)C[C@@H](OC(=O)CSC2CCN(C(=O)CCn3cnc4c(N5CCN(C)CC5)nc(N)nc43)CC2)[C@]2(C)[C@H](C)CC[C@]3(CCC(=O)[C@@H]32)[C@@H](C)[C@@H]1O | 0.125 µg/mL (≈ 0.163 µM) | 0.125 µg/mL (≈ 0.163 µM) | 0.125 µg/mL (≈ 0.163 µM) | 8.83 mg/kg | 0.125 µg/mL (≈ 0.163 µM) | 0.063 µg/mL (≈ 0.0823 µM) | 0.063 µg/mL (≈ 0.0823 µM) | 0.063 µg/mL (≈ 0.0823 µM) | 2 µg/mL (≈ 2.61 µM) |
| C=C[C@]1(C)C[C@@H](OC(=O)CSC2CCN(C(=O)CCn3cnc4c(N5CCC(NC)CC5)nc(N)nc43)CC2)[C@]2(C)[C@H](C)CC[C@]3(CCC(=O)[C@@H]32)[C@@H](C)[C@@H]1O | 0.5 µg/mL (≈ 0.642 µM) | 2 µg/mL (≈ 2.57 µM) | 0.5 µg/mL (≈ 0.642 µM) | 1.41 mg/kg | 0.125 µg/mL (≈ 0.16 µM) | 0.25 µg/mL (≈ 0.321 µM) | 0.063 µg/mL (≈ 0.0809 µM) | 0.25 µg/mL (≈ 0.321 µM) | 2 µg/mL (≈ 2.57 µM) |
| C=C[C@]1(C)C[C@@H](OC(=O)CSC2CCN(C(=O)CCn3cnc4c(N5CCC(N)CC5)ncnc43)CC2)[C@]2(C)[C@H](C)CC[C@]3(CCC(=O)[C@@H]32)[C@@H](C)[C@@H]1O | 0.125 µg/mL (≈ 0.167 µM) | 0.25 µg/mL (≈ 0.333 µM) | 0.063 µg/mL (≈ 0.084 µM) | 1.5 mg/kg | 0.016 µg/mL (≈ 0.0213 µM) | 0.032 µg/mL (≈ 0.0427 µM) | 0.016 µg/mL (≈ 0.0213 µM) | 0.063 µg/mL (≈ 0.084 µM) | 4 µg/mL (≈ 5.33 µM) |
| C=C[C@]1(C)C[C@@H](OC(=O)CSC2CCN(C(=O)CCn3cnc4c(N5CCC(N)CC5)nc(N)nc43)CC2)[C@]2(C)[C@H](C)CC[C@]3(CCC(=O)[C@@H]32)[C@@H](C)[C@@H]1O | 0.25 µg/mL (≈ 0.327 µM) | 1 µg/mL (≈ 1.31 µM) | 0.25 µg/mL (≈ 0.327 µM) | 1.86 mg/kg | 0.063 µg/mL (≈ 0.0823 µM) | 0.125 µg/mL (≈ 0.163 µM) | 0.063 µg/mL (≈ 0.0823 µM) | 0.125 µg/mL (≈ 0.163 µM) | 2 µg/mL (≈ 2.61 µM) |
| C=C[C@]1(C)C[C@@H](OC(=O)CSC2CCN(C(=O)CCn3cnc4c(N5CC[C@H](N)C5)ncnc43)CC2)[C@]2(C)[C@H](C)CC[C@]3(CCC(=O)[C@@H]32)[C@@H](C)[C@@H]1O | 0.125 µg/mL (≈ 0.17 µM) | 0.5 µg/mL (≈ 0.679 µM) | 0.125 µg/mL (≈ 0.17 µM) | 1.3 mg/kg | 0.032 µg/mL (≈ 0.0435 µM) | 0.032 µg/mL (≈ 0.0435 µM) | 0.016 µg/mL (≈ 0.0217 µM) | 0.125 µg/mL (≈ 0.17 µM) | 2 µg/mL (≈ 2.72 µM) |
| C=C[C@]1(C)C[C@@H](OC(=O)CSC2CCN(C(=O)CCn3cnc4c(N5CC(NC)C5)nc(N)nc43)CC2)[C@]2(C)[C@H](C)CC[C@]3(CCC(=O)[C@@H]32)[C@@H](C)[C@@H]1O | 0.5 µg/mL (≈ 0.666 µM) | 1 µg/mL (≈ 1.33 µM) | 0.5 µg/mL (≈ 0.666 µM) | 3.97 mg/kg | 0.063 µg/mL (≈ 0.0839 µM) | 0.125 µg/mL (≈ 0.166 µM) | 0.125 µg/mL (≈ 0.166 µM) | 0.25 µg/mL (≈ 0.333 µM) | 2 µg/mL (≈ 2.66 µM) |
